Results as given in patent publication US7939110B2, “Composition and method for treating autoimmune disease and mucosal disorder” (National Yang-Ming University, priority 2005, dated 2011).

Legend:
[1] = system: C57BL/6j mice; assay: Ovalbumin-specific IgM in serum, oral tolerance model; format: in vivo
Protocol: Since it is well-known that animals can be immunized by ovalbumin (OVA) to establish the animal model for the autoimmune disease (The Journal of Pharmacology and Experimental Therapeutics 288:849-857, 1999), the present invention establishes an animal model which includes mice with OVA-induced autoimmune disease, and the mice are treated with DeCaPS to enhance oral tolerance. […] 50 μg of OVA with Complete Freund's Adjuvant (CFA) was administrated to the mice as an antigen via i.p. injection at day 8 and with OVA on day 24. OVA-specific IgG and IgM in the blood was collected at day 22 and day 30. The mice were sacrificed at day 32 to collect an intestinal lavage solution of the intestinal mucosa and the lung mucosa to detect IgA in response to OVA. The detailed experimental procedures are illustrated in the following table II.
With comparison to the IgM antibody level expressed in the control group at day 22, the IgM antibody level expressed in the normal group was decreased by about 49% (p<0.05), the IgM antibody level-expressed in the positive control group was suppressed by about 87% (p<0.05), the IgM antibody level-expressed in the DC-1 group was suppressed by about 46% (p<0.02), the IgM antibody level-expressed in the DC-2 group was suppressed by about 88% (p<0.001), and the IgM antibody level in the DC-3 group was suppressed by about 86% (p<0.001). […]

[2] = system: C57BL/6j mice; assay: Ovalbumin-specific IgG in serum, oral tolerance model; format: in vivo
Protocol: Since it is well-known that animals can be immunized by ovalbumin (OVA) to establish the animal model for the autoimmune disease (The Journal of Pharmacology and Experimental Therapeutics 288:849-857, 1999), the present invention establishes an animal model which includes mice with OVA-induced autoimmune disease, and the mice are treated with DeCaPS to enhance oral tolerance. C57/BL6j mice ([…]) were orally treated with 0.5 mg/ml ovalbumin (OVA) in drinking water at day 4 and day 5, and DeCaPS was administrated to the C57/BL6j mice as an adjuvant at dosages of 10 mg/kg/day, 40 mg/kg/day and 160 mg/kg/day at days 3-7. 50 μg of OVA with Complete Freund's Adjuvant (CFA) was administrated to the mice as an antigen via i.p. injection at day 8 and with OVA on day 24. OVA-specific IgG and IgM in the blood was collected at day 22 and day 30. The mice were sacrificed at day 32 to collect an intestinal lavage solution of the intestinal mucosa and the lung mucosa to detect IgA in response to OVA. The detailed experimental procedures are illustrated in the following table II. […]

[3] = day 22, positive control group (oral OVA days 1-5, no DeCaPS)
[4] = day 30, positive control group (oral OVA days 1-5, no DeCaPS)

## ovalbumin [ovalbumin antigen]
[1]; [3]
  IgM antibody level suppressed vs control group: about 87%
[1]; [4]
  IgM antibody level suppressed vs control group: about 72%
[2]; [3]
  IgG antibody level suppressed vs control group: about 94%
[2]; [4]
  IgG antibody level suppressed vs control group: about 75%
